Source: publication PMC3156232, “Rapid Probing of Biological Surfaces with a Sparse-Matrix Peptide Library” (PLoS ONE, 2011)
Entries after “also recorded” stand apart in the source; their conditions may differ.

Key:
wild type M. xanthus = test: Fluorescence microscopy screening of FAM-labeled peptides against immobilized cells; assay type: binding, Myxococcus xanthus; conditions: FAM-labeled peptide 25 µM, 10 minutes, result in words
Method: (§1) Peptide samples were prepared at a concentration of 25 µM for screening. For bacterial and yeast binding assays, cells were grown overnight, washed, and immobilized in a polylysine-coated 96-well plate, except in the case of S. mutans biofilms, where 10^5 cells were inoculated into 400 µl of Todd Hewitt broth in 48-well plates and biofilms were grown anaerobically for 24 hr. FAM-labeled peptides were applied to immobilized cell, yeast, and bacterial cultures, incubated for 10 minutes and washed extensively to remove unbound peptide. Samples were visualized by fluorescence microscopy (Nikon E400). For each peptide, both brightfield and fluorescence images were collected with the manufacturer-supplied software (SPOT, Diagnostic Instruments, Sterling Heights, MI). Post-collection, the locations of cells and background regions were determined using the brightfield images; those regions were then selected in the fluorescence images for quantitation of pixel values for determination of relative fluorescence intensities using The GIMP (http://www.gimp.org), [33]. Due to the variation in the levels of binding of the peptide to the well, these values are represented as bacterial fluorescence/background fluorescence, in order to remove the effects of precipitation or nonspecific binding from the final measurement.

S. aureus = test: as above; assay type: binding, Staphylococcus aureus; conditions: FAM-labeled peptide 25 µM, 10 minutes, washed, result in words
Method: as §1

[1] = Tooth section binding by confocal laser scanning microscopy; conditions: sectioned human teeth, FAM-labeled peptide, CLSM; result in words
Excerpt: For tooth binding assays, FAM-labeled pilot matrix peptides were collected into four pools of 9 peptides each. Peptides were screened by exposing pools to sections taken from a collection of anonymous human teeth (extracted during normal clinical practice), followed by visualization of the samples by Confocal Laser Scanning Microscopy (CLSM).

S. mutans gtfB mutant = test: Fluorescence microscopy binding to surface mutant; set-up: species or system Streptococcus mutans; conditions: FAM-labeled peptide, result in words
Method: as §1

[2] = tested on: wild type S. mutans (UA140); test: Fluorescence microscopy binding to S. mutans; set-up: species or system Streptococcus mutans; conditions: FAM-labeled peptide, result in words
Method: as §1

Row | Sequence | Binding to wild-type M. xanthus cells (fluorescence staining) (wild type M. xanthus) | Binding to immobilized S. aureus cells (fluorescence staining) (S. aureus) | Binding to tooth dentin [1] | Binding to tooth enamel and enamel-proximal region of the dentino-enamel junction [1] | Binding to S. mutans gtfB mutant unable to synthesize extracellular glucan (S. mutans gtfB mutant) | Binding to wild type S. mutans [2]
1 | AMKDAMERM [Pilot Library E4] | preferentially binds | preferentially binds | no obvious binding | clear binding |  | 
2 | AMQDAMNEM [Pilot Library E6] |  |  | bound selectively to dentin |  |  | 
3 | IWHSWISTW [sma24] |  |  |  |  | reduced binding | good binding activity and specificity; also recorded: strong binding
